A value given as a limit tells only on which side of the number the result lay.

The subject of this experiment is p-IKKa levels in L363 (NIK translocated multiple myeloma) cells. The experiment can be described thus: Assay 2: Effect of compounds on p-IKKa levels in L363 (NIK translocated multiple myeloma) cells. The following applies: Homo sapiens, L-363, 6 h, read-out: Assay 2 IC50 (nM), p-IKKa (Ser 176/180) in BAFF stimulated L363 cells with MG132, 6 h; average if tested more than once. It counts as cell-based. A digest of the protocol: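 L363 cells incubated overnight ± 250 ng/ml BAFF, then 6 h at 37 °C with compound (0.3% DMSO) ± 10 μM MG132. Lysates assayed for p-IKKa (Ser176/180) by AlphaLISA SureFire. IC50 from sigmoidal fit of % inhibition normalized to BAFF/MG132-stimulated and unstimulated controls.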
Turning to `CN1CC[C@@](O)(c2cc(-c3cccc(-c4ccnc(Nc5ccn(CC6CCOCC6)n5)n4)n3)no2)C1=O` [Example 270, (R)-3-Hydroxy-1-methyl-3-(3-(6-(2-((1-((tetrahydro-2H-pyran-4-yl)methyl)-1H-pyrazol-3-yl)amino)pyrimidin-4-yl)pyridin-2-yl)isoxazol-5-yl)pyrrolidin-2-one], the IC50 is less than 50 nM. The figure for `COCc1nc(Nc2nccc(-c3cccc(-c4cc([C@]5(O)CCN(C)C5=O)on4)n3)n2)n(C)n1` [Example 271, (R)-3-Hydroxy-3-(3-(6-(2-((3-(methoxymethyl)-1-methyl-1H-1,2,4-triazol-5-yl)amino)pyrimidin-4-yl)pyridin-2-yl)isoxazol-5-yl)-1-methylpyrrolidin-2-one] is more than 500 nM; for `Cc1ccn2cnnc2c1Nc1nccc(-c2cccc(-c3cc([C@]4(O)CCN(C)C4=O)on3)n2)n1` [Example 273, (R)-3-Hydroxy-1-methyl-3-(3-(6-(2-((7-methyl-[1,2,4]triazolo[4,3-a]pyridin-8-yl)amino)pyrimidin-4-yl)pyridin-2-yl)isoxazol-5-yl)pyrrolidin-2-one] it is more than 500 nM. On to `CN(C)Cc1ccc(Nc2nccc(-c3cccc(-c4cc([C@]5(O)CCN(C)C5=O)on4)n3)n2)nc1` [Example 274, (R)-3-(3-(6-(2-((5-((Dimethylamino)methyl)pyridin-2-yl)amino)pyrimidin-4-yl)pyridin-2-yl)isoxazol-5-yl)-3-hydroxy-1-methylpyrrolidin-2-one], for which the IC50 lay in the range of 50 to 500 nM. With `CCn1ncnc1Nc1nccc(-c2cccc(-c3cc([C@]4(O)CCN(C)C4=O)on3)n2)n1` [Example 276, (R)-3-(3-(6-(2-((1-Ethyl-1H-1,2,4-triazol-5-yl)amino)pyrimidin-4-yl)pyridin-2-yl)isoxazol-5-yl)-3-hydroxy-1-methylpyrrolidin-2-one], the IC50 was more than 500 nM. The figure for `CN(C)C(=O)Cn1ccc(Nc2nccc(-c3cccc(-c4cc([C@]5(O)CCN(C)C5=O)on4)n3)n2)n1` [Example 277, (R)-2-(3-((4-(6-(5-(3-Hydroxy-1-methyl-2-oxopyrrolidin-3-yl)isoxazol-3-yl)pyridin-2-yl)pyrimidin-2-yl)amino)-1H-pyrazol-1-yl)-N,N-dimethylacetamide] is 50 to 500 nM. The result for `Cc1nn(CCN(C)C)c(C)c1Nc1nccc(-c2cccc(-c3cc([C@]4(O)CCN(C)C4=O)on3)n2)n1` [Example 278, (R)-3-(3-(6-(2-((1-(2-(Dimethylamino)ethyl)-3,5-dimethyl-1H-pyrazol-4-yl)amino)pyrimidin-4-yl)pyridin-2-yl)isoxazol-5-yl)-3-hydroxy-1-methylpyrrolidin-2-one] reads more than 500 nM. The result for `CN1CC[C@@](O)(c2cc(-c3cccc(-c4ccnc(Nc5cc(Cl)n(C)n5)n4)n3)no2)C1=O` [Example 279, (R)-3-(3-(6-(2-((5-Chloro-1-methyl-1H-pyrazol-3-yl)amino)pyrimidin-4-yl)pyridin-2-yl)isoxazol-5-yl)-3-hydroxy-1-methylpyrrolidin-2-one] reads 50 to 500 nM; that for `CN1CC[C@@](O)(c2cc(-c3cccc(-c4ccnc(Nc5cc(CO)n(C)n5)n4)n3)no2)C1=O` [Example 280, (R)-3-Hydroxy-3-(3-(6-(2-((5-(hydroxymethyl)-1-methyl-1H-pyrazol-3-yl)amino)pyrimidin-4-yl)pyridin-2-yl)isoxazol-5-yl)-1-methylpyrrolidin-2-one], 50 to 500 nM. With `CN1CC[C@@](O)(c2cc(-c3cccc(-c4ccnc(Nc5ccnnc5)n4)n3)no2)C1=O` [Example 281, (R)-3-Hydroxy-1-methyl-3-(3-(6-(2-(pyridazin-4-ylamino)pyrimidin-4-yl)pyridin-2-yl)isoxazol-5-yl)pyrrolidin-2-one], the IC50 was more than 500 nM. Regarding `Cc1cc(Nc2nccc(-c3cccc(-c4cc([C@]5(O)CCN(C)C5=O)on4)n3)n2)nn1C` [Example 282, (R)-3-(3-(6-(2-((1,5-Dimethyl-1H-pyrazol-3-yl)amino)pyrimidin-4-yl)pyridin-2-yl)isoxazol-5-yl)-3-hydroxy-1-methylpyrrolidin-2-one], the IC50 was less than 50 nM.

Take `Cc1cc(Nc2nccc(-c3cccc(-c4cc([C@]5(O)CCN(C)C5=O)on4)n3)n2)cc(C)n1` [Example 283, (R)-3-(3-(6-(2-((2,6-Dimethylpyridin-4-yl)amino)pyrimidin-4-yl)pyridin-2-yl)isoxazol-5-yl)-3-hydroxy-1-methylpyrrolidin-2-one]: the IC50 is less than 50 nM. The figure for `COc1ccc(Nc2nccc(-c3cccc(-c4cc([C@]5(O)CCN(C)C5=O)on4)n3)n2)cn1` [Example 285, (R)-3-Hydroxy-3-(3-(6-(2-((6-methoxypyridin-3-yl)amino)pyrimidin-4-yl)pyridin-2-yl)isoxazol-5-yl)-1-methylpyrrolidin-2-one] is less than 50 nM. Regarding `C[C@@H]1C[C@@](O)(c2cc(-c3cccc(-c4ccnc(Nc5cnn(C)c5)n4)n3)no2)C(=O)N1C` [Example 286, (3R,5R)-3-Hydroxy-1,5-dimethyl-3-(3-(6-(2-((1-methyl-1H-pyrazol-4-yl)amino)pyrimidin-4-yl)pyridin-2-yl)isoxazol-5-yl)pyrrolidin-2-one], the IC50 is more than 500 nM. The figure for `CN1C(=O)[C@](O)(c2cc(-c3cccc(-c4ccnc(Nc5cnn(C)c5Cl)n4)n3)no2)[C@H]2C[C@H]21` [Example 287, (1R,4R,5S)-4-(3-(6-(2-((5-Chloro-1-methyl-1H-pyrazol-4-yl)amino)pyrimidin-4-yl)pyridin-2-yl)isoxazol-5-yl)-4-hydroxy-2-methyl-2-azabicyclo[3.1.0]hexan-3-one] is 50 to 500 nM; for `COc1cncc(Nc2nccc(-c3cccc(-c4cc([C@]5(O)CCN(C)C5=O)on4)n3)n2)c1` [Example 288, (R)-3-Hydroxy-3-(3-(6-(2-((5-methoxypyridin-3-yl)amino)pyrimidin-4-yl)pyridin-2-yl)isoxazol-5-yl)-1-methylpyrrolidin-2-one] it is less than 50 nM; for `Cc1nn(C)c(C)c1Nc1nccc(-c2cccc(-c3cc([C@]4(O)CCN(C)C4=O)on3)n2)n1` [Example 289, (R)-3-Hydroxy-1-methyl-3-(3-(6-(2-((1,3,5-trimethyl-1H-pyrazol-4-yl)amino)pyrimidin-4-yl)pyridin-2-yl)isoxazol-5-yl)pyrrolidin-2-one] it is more than 500 nM.

Consider `CN1CC[C@@](O)(c2cc(-c3cccc(-c4ccnc(Nc5ccncc5C#N)n4)n3)no2)C1=O` [Example 290, (R)-4-((4-(6-(5-(3-Hydroxy-1-methyl-2-oxopyrrolidin-3-yl)isoxazol-3-yl)pyridin-2-yl)pyrimidin-2-yl)amino)nicotinonitrile], for which the IC50 was in the range of 50 to 500 nM.

Turning to `Cc1ncc(Nc2nccc(-c3cccc(-c4cc([C@]5(O)CCN(C)C5=O)on4)n3)n2)cn1` [Example 291, (R)-3-Hydroxy-1-methyl-3-(3-(6-(2-((2-methylpyrimidin-5-yl)amino)pyrimidin-4-yl)pyridin-2-yl)isoxazol-5-yl)pyrrolidin-2-one], the IC50 is 50 to 500 nM.

On to `CN1CC[C@@](O)(c2cc(-c3cccc(-c4ccnc(Nc5cncc(C#N)c5)n4)n3)no2)C1=O` [Example 292, (R)-5-((4-(6-(5-(3-Hydroxy-1-methyl-2-oxopyrrolidin-3-yl)isoxazol-3-yl)pyridin-2-yl)pyrimidin-2-yl)amino)nicotinonitrile], for which the IC50 was less than 50 nM.

Turning to `Cc1cc(Nc2nccc(-c3cccc(-c4cc([C@]5(O)CCN(C)C5=O)on4)n3)n2)c(F)cn1` [Example 293, (R)-3-(3-(6-(2-((5-Fluoro-2-methylpyridin-4-yl)amino)pyrimidin-4-yl)pyridin-2-yl)isoxazol-5-yl)-3-hydroxy-1-methylpyrrolidin-2-one], the IC50 is less than 50 nM. The result for `CN1CC[C@@](O)(c2cc(-c3cccc(-c4ccnc(Nc5ccnc(C(F)F)c5)n4)n3)no2)C1=O` [Example 294, (R)-3-(3-(6-(2-((2-(Difluoromethyl)pyridin-4-yl)amino)pyrimidin-4-yl)pyridin-2-yl)isoxazol-5-yl)-3-hydroxy-1-methylpyrrolidin-2-one] reads less than 50 nM; that for `CN1CC[C@@](O)(c2cc(-c3cccc(-c4ccnc(Nc5cc(F)n(C)n5)n4)n3)no2)C1=O` [Example 295, (R)-3-(3-(6-(2-((5-Fluoro-1-methyl-1H-pyrazol-3-yl)amino)pyrimidin-4-yl)pyridin-2-yl)isoxazol-5-yl)-3-hydroxy-1-methylpyrrolidin-2-one], less than 50 nM; that for `CN1CC[C@@](O)(c2cc(-c3cccc(-c4ccnc(Nc5cn(C)nc5Cl)n4)n3)no2)C1=O` [Example 296, (R)-3-(3-(6-(2-((3-Chloro-1-methyl-1H-pyrazol-4-yl)amino)pyrimidin-4-yl)pyridin-2-yl)isoxazol-5-yl)-3-hydroxy-1-methylpyrrolidin-2-one], less than 50 nM. The figure for `CN1CC[C@@](O)(c2cc(-c3cccc(-c4ccnc(Nc5cnn(C)c5Cl)n4)n3)no2)C1=O` [Example 297, (R)-3-(3-(6-(2-((5-Chloro-1-methyl-1H-pyrazol-4-yl)amino)pyrimidin-4-yl)pyridin-2-yl)isoxazol-5-yl)-3-hydroxy-1-methylpyrrolidin-2-one] is less than 50 nM; for `Cc1nccc(Nc2nccc(-c3cccc(-c4cc([C@]5(O)CCN(C)C5=O)on4)n3)n2)n1` [Example 298, (R)-3-Hydroxy-1-methyl-3-(3-(6-(2-((2-methylpyrimidin-4-yl)amino)pyrimidin-4-yl)pyridin-2-yl)isoxazol-5-yl)pyrrolidin-2-one] it is less than 50 nM. With `CN1CC[C@@](O)(c2cc(-c3cccc(-c4ccnc(Nc5cnn6ccncc56)n4)n3)no2)C1=O` [Example 299, (R)-3-Hydroxy-1-methyl-3-(3-(6-(2-(pyrazolo[1,5-a]pyrazin-3-ylamino)pyrimidin-4-yl)pyridin-2-yl)isoxazol-5-yl)pyrrolidin-2-one], the IC50 is less than 50 nM.

The record behind these values is patent US20250282768A1 (Janssen Pharmaceutica NV, priority 2022, published 2025).
